Experimental data published in patent US9925162B2, “Methods and compositions for inducing physiological hypertrophy” (THE REGENTS OF THE UNIVERSITY OF COLORADO, priority 2009, dated 2018).

Assays:
[1] = tested on: Neonatal rat ventricular myocytes (NRVMs); experiment: Inhibition of fatty acid transport blocks serum-induced NRVM hypertrophy; type: cell-based; conditions: Coulter Counter
Method: Synthesis of Sulfo-N-succinimidyl oleate (SSO) was performed as described by Harmon et al. (J. Membr Biol.; 121:261-268; 1991), which is hereby incorporated by reference. Briefly, oleate (0.25 mM), HOSu(SO3)Na (0.25 mM), and dicyclohexylcarbodiimide (DCC) (0.275 mM) were dissolved in 0.5 ml of dry N,N-dimethylformamide (DMF) and stirred overnight at room temperature. Precipitated dicyclohexyturea was removed by filtration, and the filtrate cooled to 3° C. for 4 hours. Eight volumes of ethyl acetate were added, and the precipitated product was collected by filtration under nitrogen and then stored in a vacuumed desiccator over phosphorus pentoxide. Neonatal rat ventricular myocytes (NRVMs) were cultured in serum-free media (MEM/Hepes/PB12) containing insulin, transferrin, BSA, and BrdU. NRVMs were treated with serum (2%) in the presence and absence of SSO (400 μM) for 48 hours and cell size was determined using a Coulter Counter.

Aquaporin 7 = experiment: Aqp7 mRNA by qPCR after fatty acid treatment; type: cell-based, rat; conditions: fasted plasma supplemented with FFAs, relative to 1 DPF plasma, FIG. 11
Method: (§1) Individual fatty acids were complexed to BSA as described by de Vries et al. (J. Lipid Res.; 38:1384-1394; 1997), which is hereby incorporated by reference. […] An equal volume of Na2CO3 (10 mM) was added and the ethanol was evaporated at 60° C. under continuous N2 flow. The fatty acid mix was added dropwise to 10% BSA. BSA/fatty acid complexes were then dialyzed four times at 4° C. during 4-6 hours in NH4HCO3 (0.1 M). Complexes were then frozen, lyophilized overnight, and resuspended in NRVM rinse media (MEM/PB12/Hepes) for a final concentration of 7 mM. NRVMs were treated with fasted serum, 1 day post-fed serum, or fasted serum+individual fatty acids. […] NRVM gene expression and mean cell diameter were determined after either 24 or 48 hours, respectively.

[2] = tested on: neonatal rat cardiomyocytes; experiment: Fasted plasma supplemented with fatty acids, NRVM cell size; type: cell-based; conditions: fasted plasma 2% supplemented to 1 DPF-like levels (C14 40 μM; C16 137 μM; C16:1 7.5 μM), 48 hours, FIG. 10
Method: as §1

Structure (SMILES) | cell growth induced by the fed-serum ([1]; SSO 400 μM, 2% 1DPF serum, 48 hours) | cell size ([1]; SSO and no serum (control)) | Aqp7 mRNA levels (Aquaporin 7) | changes in cell size [2]
CCCCCCCC/C=C\CCCCCCCC(=O)ON1C(=O)CC(S(=O)(=O)O)C1=O (stereo not shown) [SSO, Sulfo-N-succinimidyl oleate] | completely blocks | smaller | – | –
CCCCCCCCCCCCCC(=O)O [C14, tetradecanoic acid] | – | – | comparable levels observed with 1 DPF plasma | significant increase
